Laboratory results published in patent US4866091A, “Alkanesulfonanilide derivatives, processes for preparation thereof and pharmaceutical composition comprising the same” (Fujisawa Pharmaceutical Co., Ltd., priority 1986, dated 1989).
Where two headings read alike, the source gives them in different places.

Assays:
[1] = tested on: writhing syndrome induced by acetic acid in mice; assay: Test 2: writhing syndrome induced by acetic acid in mice (analgesic activity); type: in vivo, male ddY mice; conditions: Mus musculus
Experimental: Writhing syndrome induced by acetic acid in mice Ten male ddY mice were used per group. Writhing syndrome was produced by an intraperitoneal injection of 20 ml/kg of 0.6% acetic acid in mice. The animals were observed from 3 to 13 minutes after acetic acid injection, and a total number of writhing episodes was recorded. The drugs were given orally 1 hour before acetic acid injection. The frequency of writhing in the treated animals was compared with that in the control animals.

[2] = tested on: pyrexia induced by brewer's yeast in rats; assay: Test 3: anti-pyretic activity, brewer's yeast-induced pyrexia in rats; type: in vivo, male Sprague-Dawley rats; conditions: Rattus norvegicus, oral
Experimental: Anti-pyretic activity Ten male Sprague-Dawley rats were used per group. Pyrexia was induced by SC injection of 10 ml/kg of 5% brewer's yeast suspension. The drugs were given orally […] after yeast injection. Rectal temperature was measured 1 and 2 hours after administration of drugs, and the difference of rectal temperature from that before yeast injection was calculated.

[3] = tested on: inflammatory hyperalgesia induced by brewer's yeast in rats; assay: Test 5: inflammatory hyperalgesia induced by brewer's yeast in rats (analgesic activity); type: in vivo, male Sprague Dawley rats
Experimental: Inflammatory hyperalgesia induced by brewer's yeast in rats
Ten male Sprague Dawley rats were used per group. 0.1 Ml of 5% brewer's yeast suspended in 0.5% methylcellulose was injected into the right hind paw, The pain threshold was determined 3 hours after yeast injection, by applying pressure to the foot and reading the pressure at which the rat withdrew the foot.
The drugs were given orally 2 hours after yeast infection. The pain threshold in the treated animals was compared with that in the control animals.

[4] = oral, 1 hour before acetic acid injection, number of writhing episodes 3 to 13 minutes after, read-out: ED50
[5] = rectal temperature 1 hour after administration, read-out: ED50 (1 hr)
[6] = rectal temperature 2 hours after administration, read-out: ED50 (2 hr)

Molecule `CC(=O)c1ccc(NS(C)(=O)=O)c(Oc2ccc(F)cc2F)c1` [Example 1, 4'-acetyl-2'-(2,4-difluorophenoxy)methanesulfonanilide] has an ED50 [1, 4] of 14 mg/kg, an ED50 [2, 5] of 10 mg/kg and an ED50 [2, 6] of 6.8 mg/kg.

For `CS(=O)(=O)Nc1ccc(C#N)cc1Oc1ccc(F)cc1F` [Example 3, 4'-Cyano-2'-(2,4-difluorophenoxy)methanesulfonanilide], the ED50 [1, 4] was 2.4 mg/kg.

For `Cc1cc(NS(C)(=O)=O)c(Oc2ccc(F)cc2F)cc1C#N` [Example 20, 4'-Cyano-2'-(2,4-difluorophenoxy)-5'-methylmethanesulfonanilide], the ED50 [1, 4] was 55.8 mg/kg.

For `CC(=O)c1ccc(NS(C)(=O)=O)c(Oc2ccc(F)cc2Cl)c1` [Example 25, 4'-Acetyl-2'-(2-chloro-4-fluorophenoxy)methanesulfonanilide], the ED50 [1, 4] was 9.6 mg/kg.

With `CC(=NNC(N)=O)c1ccc(NS(C)(=O)=O)c(Oc2ccc(F)cc2F)c1` [Example 40, 3'-(2,4-difluorophenoxy)-4'-methanesulfonamidoacetophenone semicarbazone] the ED50 [1, 4] was 18 mg/kg.

With `CS(=O)(=O)Nc1ccc(C#N)cc1Oc1ccc(F)cc1F.[Na]` [Example 73, 4'-cyano-2'-(2,4-difluorophenoxy)methanesulfonanilide sodium salt] the ED30 ([3]; po) was 1.8 mg/kg.

With `COc1ccc2c(c1)c(CC(=O)O)c(C)n2C(=O)c1ccc(Cl)cc1` [Indomethacin, reference compound] the ED30 ([3]; oral, 2 hours after yeast injection, pain threshold 3 hours after yeast injection, read-out: ED30) was 5.1 mg/kg, the ED50 ([1]; po) was 1.6 mg/kg and the ED50 [2, 5] was 4.6 mg/kg. For the same molecule, the ED50 [2, 6] was 2.6 mg/kg.
